Laboratory results as given in US12428459B2, “Protein tag to induce ligand dependent degradation of protein/protein-fusions” (DANA-FARBER CANCER INSTITUTE, INC., priority 2019, dated 2025).
pEC50, pKd, pKi: −log10 of the molar value. Entries after “also recorded” stand apart in the source; their conditions may differ.

Key:
[1] = tested on: DDB1ΔB-DCAF15biotin-DDA1 / RBM39RRM2; test: TR-FRET titration of BodipyFL-RBM39RRM2 to the DDA1-containing complex with E7820; type: binding, human; details: with versus without DDA1
Experimental: (§1) Titrations of BodipyFL-RBM39 were carried out by mixing 400 nM biotinylated Strep II Avi-tagged DCAF15 variants, 100 μM compounds or equivalent volume of DMSO, and 4 nM terbium-coupled streptavidin in the same assay buffer. After dispensing the assay mixture, increasing concentration of BodipyFL-RBM39 was added to the compound-bound DCAF15 in a 1:1 volume ratio and incubated for 15 min at room temperature. The 520/490 nm ratios were plotted to calculate the Kd values estimated using One site-Specific binding equation in GraphPad Prism® 7.

DDB1ΔB-DCAF15biotin-DDA1 = test: TR-FRET titration of BodipyFL-E7820 probe to the DDA1-containing complex; type: binding, human; details: with versus without DDA1
Experimental: Titrations of BodipyFL-E7820 (4) were carried out by mixing 200 nM biotinylated Strep II Avi-tagged DCAF15 variants or equivalent volume of the assay buffer, 2 nM terbium-coupled streptavidin in the same assay buffer. After dispensing the assay mixture, increasing concentration of BodipyFL-E7820 (4) was dispensed in the 384-well plate using D300e normalized to 2% DMSO, and then incubated for 15 min at room temperature. The 520/490 nm ratios from the sample with DCAF15 was subtracted by the ratios from the sample without DCAF15, and the subtracted values were plotted to calculate the Kd values estimated using One site-Specific binding equation in GraphPad Prism® 7. All TR-FRET results are plotted as means±s.d. from three independent replicates (n=3) unless otherwise indicated.

RBM39RRM2-biotin = target: T1, RBM39RRM2-biotin (Homo sapiens, UniProt Q14498); test: TR-FRET titration of BodipyFL-E7820 probe to RBM39RRM2-biotin; type: binding; details: RBM39RRM2-biotin alone
T1 construct: RBM39RRM2 (245-332), and RBM23RRM2 (263-341); made in house; host or cells: Trichoplusia ni High Five insect cells (baculovirus)
T1 sequence (Q14498 245-332): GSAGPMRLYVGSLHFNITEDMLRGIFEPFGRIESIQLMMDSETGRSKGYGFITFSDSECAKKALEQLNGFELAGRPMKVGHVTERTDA

[2] = target: T2, DDB1ΔB-DCAF15 and BodipyFL-RBM39RRM2-G268V (Homo sapiens, UniProt Q14498+Q66K64, G268V); test: TR-FRET recruitment assay with the RBM39RRM2 G268V mutant: titration of E7820; type: binding; details: BodipyFL-RBM39RRM2-G268V 200 nM, E7820 0.002-33 μM
T2 construct: RBM39RRM2 (245-332), and RBM23RRM2 (263-341); made in house; host or cells: Trichoplusia ni High Five insect cells (baculovirus)
Experimental: (§2) Titrations of compounds to induce DCAF15-RBM39 or DCAF15-RBM23 complex were carried out by mixing 200 nM biotinylated Strep II Avi-tagged DCAF15, 200 nM BodipyFL-labeled RBM39 or RBM23 variants, and 2 nM terbium-coupled streptavidin (Invitrogen™) in an assay buffer containing 50 mM Tris pH 8.0, 200 mM NaCl, 0.1% Pluronic F-68 solution (Sigma®), and 0.5% BSA (w/v). Full-length human DCAF15 was used in all TR-FRET assays. After dispensing the assay mixture, increasing concentrations of compounds were dispensed in a 384-well microplate (Corning, 4514) using a D300e Digital Dispenser (HP) normalized to 2% DMSO. Before TR-FRET measurements were conducted, the reactions were incubated for 15 min at room temperature. After excitation of terbium fluorescence at 337 nm, emission at 490 nm (terbium) and 520 nm (BodipyFL) were recorded with a 70 μs delay over 600 μs to reduce background fluorescence, and the reaction was followed over 60 cycles of each data point using a PHERAstar® FS microplate reader (BMG Labtech). The TR-FRET signal of each data point was extracted by calculating the 520/490 nm ratio. The half-maximal effective concentration EC50 values calculated using [Agonist] vs response (three parameters) equation in GraphPad Prism® 7.

[3] = target: T3, DDB1ΔB-DCAF15split and BodipyFL-RBM39RRM2 (Homo sapiens, UniProt Q14498+Q66K64); test: TR-FRET recruitment assay with DCAF15split: titration of E7820; type: binding; details: E7820 0.002-33 μM, proteins at 200 nM
T3 construct: DCAF15 NTD (30-264), DCAF15 CTD (383-600); RBM39RRM2 (245-332), and RBM23RRM2 (263-341); Strep II Avi (N); made in house; host or cells: Trichoplusia ni High Five insect cells (baculovirus)

RBM39 in HEK293T cells = target: T4, RBM39 in HEK293T cells (Homo sapiens, UniProt Q14498+Q66K64); test: Cellular degradation of endogenous RBM39, western blot; type: cell-based; details: 500 nM E7820, HEK293T, 6 h
T4 construct: cellular degradation of endogenous RBM39; endogenous in cells; host or cells: HEK293T
Experimental: FIG. 7A-FIG. 7G are a series of cartoon representations, graphs, and structures depicting the biochemical characterization of DCAF15 binding to aryl-sulfonamides and RBM39RRM2. FIG. 7A is a schematic representation of TR-FRET-based DCAF15-RBM39 dimerization assay. FIG. 7B is a graph of TR-FRET for the titration of BodipyFL-RBM39RRM2 (0.02-20 μM) to DDB1ΔB-DCAF15biotin at 200 nM in the absence (DMSO) or presence of aryl-sulfonamides at 50 μM. Data is plotted as means±s.d. from three independent replicates (n=3). […] FIG. 7D is a schematic representation of TR-FRET-based DCAF15 binding assay. Compound 4 is titrated to the DDB1ΔB-DCAF15biotin, and the probe is displaced by competitor compounds. FIG. 7E is the chemical structure of BodipyFL-E7820 (4). […] Data is plotted as means±s.d. from three independent replicates (n=3). FIG. 7G is an immunoblot showing cellular degradation of endogenous RBM39. […] Shown is the uncropped blot with molecular size markers. The positions of RBM39 and GAPDH are indicated, and the asterisk marks a non-specific band. Quantitation of RBM39 and GAPDH bands was performed with the LI-COR imaging system, and % RBM39 is calculated as [RBM39 intensity/GAPDH intensity].

Kelly cells = test: TMT quantification mass spectrometry proteomics (degradome of E7820); type: cell-based; details: E7820 10 μM, 5 h
Experimental: Treated Kelly cells were washed in PBS (Corning VWR, Radnor PA, USA) and collected at 3000 g centrifugation. Sample preparation and LC-MS analysis for whole proteome identification of novel E7820-dependent substrates was performed as described previously (Donovan et al., Elife 7:38430 (2018)).

DDB1ΔB-DCAF15biotin = target: T5, DDB1ΔB-DCAF15biotin (Homo sapiens, UniProt Q66K64); test: TR-FRET competition assay: displacement of BodipyFL-E7820 by aryl-sulfonamides; type: binding; details: for DCAF15 binding relative to E7820: competitive binding assay
T5 construct: Full-length human DCAF15 was used in all TR-FRET assays; made in house; host or cells: Trichoplusia ni High Five insect cells (baculovirus)
From the text: The 520/490 nm ratios from the sample with DCAF15 was subtracted by the ratios from the sample without DCAF15, and the subtracted values were plotted to calculate the Kd values estimated using One site-Specific binding equation in GraphPad Prism® 7. All TR-FRET results are plotted as means±s.d. from three independent replicates (n=3) unless otherwise indicated.

[4] = target: T6, DDB1ΔB-DCAF15biotin and BodipyFL-RBM39RRM2 (Homo sapiens, UniProt Q14498+Q66K64); test: TR-FRET RBM39RRM2 recruitment assay: titration of compound; type: binding; details: BodipyFL-RBM39RRM2-WT 200 nM, DCAF15 200 nM; read-out: EC50 of DCAF15-RBM39RRM2 complex formation
T6 construct: Full-length human DCAF15 was used in all TR-FRET assays; RBM39RRM2 (245-332), and RBM23RRM2 (263-341); made in house; host or cells: Trichoplusia ni High Five insect cells (baculovirus)
Experimental: as §2

[5] = tested on: degron tag-eGFP fusion protein in HEK293T cells; test: Compound-dependent degradation of degron-eGFP fusion, eGFP/mCherry ratio; type: cell-based; details: 20-hour treatment
From the text: To test compound-dependent degradation of the designed degron tags, a fusion protein of the tags and enhanced green fluorescence protein (eGFP) was stably expressed in HEK293T cells using a lentiviral vector. As an internal control, the cells also expressed an untagged mCherry protein downstream of the same promoter as degron-eGFP separated by an internal ribosomal entry site. […] A lower value of eGFP/mCherry at the same compound concentration indicates a higher rate of degradation. Designed degrons have higher degradation at low doses of aryl-sulfonamides and also lower IC50 values.

[6] = target: T7, DDB1ΔB-DCAF15biotin / RBM39RRM2 (Homo sapiens, UniProt Q14498+Q66K64); test: TR-FRET DCAF15-RBM39 dimerization assay: titration of BodipyFL-RBM39RRM2 to DDB1ΔB-DCAF15biotin with aryl-sulfonamide; type: binding; details: compound at 50 μM; DDB1ΔB-DCAF15biotin without DDA1; read-out: KD^app of RBM39RRM2 for DDB1ΔB-DCAF15 in the presence of compound
T7 construct: Full-length human DCAF15 was used in all TR-FRET assays; RBM39RRM2 (245-332), and RBM23RRM2 (263-341); made in house; host or cells: Trichoplusia ni High Five insect cells (baculovirus)
Experimental: Time-Resolved Fluorescence Resonance Energy Transfer (TR-FRET)
as §1

## Cc1ccc(NS(=O)(=O)c2cccc(C#N)c2)c2[nH]cc(C#N)c12 [E7820]
[1]
  Strengthening of apparent affinity to RBM39RRM2 by DDA1: ~3 fold
DDB1ΔB-DCAF15biotin-DDA1
  Effect of DDA1 on the affinity of E7820 to DCAF15: not altered
RBM39RRM2-biotin
  Binding to RBM39RRM2: not with RBM39
[2]
  RBM39RRM2 recruitment to DCAF15 with Gly268Val mutation: completely abrogated
[3]
  DCAF15-RBM39 dimerization, DCAF15split versus full length DCAF15: equivalent binding
RBM39 in HEK293T cells
  Degradation of RBM39 in cells: potently degraded
Kelly cells
  Proteins degraded out of ~11,000 proteins detected: only RBM23 to be degraded in addition to RBM39

## NS(=O)(=O)c1ccc(S(=O)(=O)Nc2cccc3c(Cl)c[nH]c23)cc1 [indisulam]
DDB1ΔB-DCAF15biotin; DDB1ΔB-DCAF15biotin 200 nM, BodipyFL-E7820 5 μM, aryl-sulfonamides 0.002-100 μM, read-out: Ki for DCAF15
  pKi: < 4.30
DDB1ΔB-DCAF15biotin
  DCAF15 binding relative to E7820: significant loss of DCAF15 binding; also recorded: significant loss in affinity for DCAF15
[4]
  pEC50: 5.49
[5]
  Degradation of designed degron tag-eGFP (eGFP/mCherry ratio): dose-dependent degradation

## O=C(NS(=O)(=O)c1ccc(Br)s1)c1ccc(Cl)cc1Cl [tasisulam]
[6]
  pKd: 5.46
DDB1ΔB-DCAF15biotin
  DCAF15 binding relative to E7820: significant loss in affinity for DCAF15
[4]
  pEC50: < 5.00
[5]
  Degradation of designed degron tag-eGFP (eGFP/mCherry ratio): dose-dependent degradation
